The supplement of paper PMC10307832

Tests used:
Experiment in all cases: relative viability (nuclei count vs DMSO), 5 days (fraction); higher = more cells survive
[1] = compound: O=C(O)c1ccc2c(c1)nc(Nc1cccc(Cl)c1)c1ccncc12 [Silmitasertib] + Cc1nc(NC(=O)N2CCC[C@H]2C(N)=O)sc1-c1ccnc(C(C)(C)C(F)(F)F)c1 [Alpelisib] (partner 2 µM)
Method in brief: (§1)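 Relative viability divides the nuclei count in treated wells by that in vehicle wells. Lung cancer cell lines were seeded in 1536-well plates, dosed by pin tool the next day, and fixed and stained after 5 days in one step with final 0.05% Triton X-100, 1% formaldehyde and 1 ug/ml Hoechst. Dosing was a single drug or a fixed anchor-drug dose plus five library-drug doses (not always all listed) in √10 steps, and values are medians of duplicate plates imaged at 4×.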

[2] = compound: O=C(O)c1ccc2c(c1)nc(Nc1cccc(Cl)c1)c1ccncc12 [Silmitasertib] + CS(=O)(=O)CCNCc1ccc(-c2ccc3ncnc(Nc4ccc(OCc5cccc(F)c5)c(Cl)c4)c3c2)o1 [Lapatinib] (partner 2 µM)
Method in brief: as §1

[3] = compound: O=C(O)c1ccc2c(c1)nc(Nc1cccc(Cl)c1)c1ccncc12 [Silmitasertib] + N=C(N)NC(=N)NCCc1ccccc1 [Phenformin] (partner 250 µM)
Method in brief: as §1

Silmitasertib + AZD7762 = compound: O=C(O)c1ccc2c(c1)nc(Nc1cccc(Cl)c1)c1ccncc12 [Silmitasertib] + NC(=O)Nc1cc(-c2cccc(F)c2)sc1C(=O)N[C@H]1CCCNC1 [AZD7762] (partner 0.2 µM)
Method in brief: as §1

[4] = compound: O=C(O)c1ccc2c(c1)nc(Nc1cccc(Cl)c1)c1ccncc12 [Silmitasertib] + Cc1nc(Nc2ncc(C(=O)Nc3c(C)cccc3Cl)s2)cc(N2CCN(CCO)CC2)n1 [Dasatinib] (partner 0.075 µM)
Method in brief: as §1

Cell Line	relative viability ([1]; first compound 0.04 µM)	relative viability ([1]; first compound 0.4 µM)	relative viability ([1]; first compound 1.265 µM)	relative viability ([1]; first compound 4 µM)	relative viability ([2]; first compound 0.04 µM)	relative viability ([2]; first compound 0.4 µM)	relative viability ([2]; first compound 1.265 µM)	relative viability ([2]; first compound 4 µM)	relative viability ([3]; first compound 0.04 µM)	relative viability ([3]; first compound 0.4 µM)	relative viability ([3]; first compound 1.265 µM)	relative viability ([3]; first compound 4 µM)	relative viability (Silmitasertib + AZD7762; first compound 0.04 µM)	relative viability (Silmitasertib + AZD7762; first compound 0.4 µM)	relative viability (Silmitasertib + AZD7762; first compound 1.265 µM)	relative viability (Silmitasertib + AZD7762; first compound 4 µM)	relative viability ([4]; first compound 0.04 µM)	relative viability ([4]; first compound 0.4 µM)	relative viability ([4]; first compound 1.265 µM)	relative viability ([4]; first compound 4 µM)
NCI-H650	1.16	0.648	1.09	0.99	1.13	0.722	0.525	0.272	0.542	0.339	0.377	0.235	1.17	0.524	0.907	0.982	0.479	0.373	0.375	0.285
NCI-H727	0.611	0.506	0.493	0.297	1.05	0.608	0.855	0.527	0.692	0.488	0.511	0.348	0.773	0.573	0.654	0.543	0.326	0.358	0.272	0.379
NCI-H838	1.05		0.967	0.556	1.28		0.753	0.465	0.708		0.513	0.362	0.828	0.864	1.03	0.951	0.323	0.325	0.372	0.254
NCI-H1355	0.911		0.721	0.766	1.08		0.883	0.726	0.457		0.46	0.43	0.729		0.776	0.679	0.766		0.578	0.485
NCI-H1395	1.15	0.728	1.03	0.965	1.29	0.672	0.919	0.68	0.495	0.436	0.49	0.373	0.425	0.42	0.421	0.41	0.471	0.387	0.431	0.414
NCI-H1437	0.976		0.741	0.498	0.865		0.483	0.347	0.327	0.334	0.305	0.278	1.2	1.06	1.02	1.06	0.483	0.376	0.272	0.322
NCI-H1651	0.951	1.03	0.952	0.86	1.08	0.997	0.99	0.626	0.339	0.321	0.378	0.363	0.505	0.449	0.481	0.675	0.49	0.387	0.448	0.384
NCI-H1666	1.03	0.781	0.61	0.505	0.734	0.564	0.452	0.319	0.571	0.582	0.607	0.511	0.915	0.857	0.763	0.627	0.837	0.664	0.623	0.615
NCI-H1734	0.688		0.649	0.66	1.14		0.948	0.785	0.499	0.358	0.42	0.357	0.555	0.445	0.544	0.513	0.498	0.422	0.471	0.487
